Data set [1] can be described thus: Antioxidation activity (hydroperoxide formed by oxidation of linoleic acid, HPLC). To be noted: 200 ppm, 50° C., light-shielded. As for the experimental part: Ten ml of about one % linoleic acid in ethanol solution, 10 ml of 50 mM phosphate buffer and 5 ml water were mixed, and 5 ml aliquots of the mixture were distributed to 5 ml-flasks. […] A half ml of solution was sampled from each flask at a prescribed time interval, and the sampled solution was subjected to high-performance liquid chromatography (HPLC) to analyze the amount of hydroperoxide which was formed as a result of the oxidation of linoleic acid. The conditions used in the analysis of hydroperoxide were as follows:
Apparatus : WATERS MODEL M-6000A, a pump system commercialized by Japan Waters Ltd., Tokyo, Japan;
Column : ODS-M column, a column commercialized by Shimadzu Techno-Research,Inc., Kyoto, Japan;
Column temperature : 35° C.
Eluate : water:methanol:acetic acid =75:25:0.1
Detection wave length: at 235 nm

A short description of another data set: Solubility in solvent. The format is physicochemical. To be noted: 25° C. water (pH 7).

In brackets after ≈: the same amount, converted by molar mass.

Broadly, the solubility is how much of the substance goes into solution per volume. A low value points to a poorly soluble substance.

For `Cc1c(C)c2c(c(C)c1O)CCC(C)(CCCC(C)CCCC(C)CCCC(C)C)O2` (racemic) [dl-α-Tocopherol], the “Relative intensity determined with the peak area corresponding to hydroperoxide, sampling day 0” value in data set [1] (day 0, Control 0.3) stood at 0.3. Further, the “Relative intensity determined with the peak area corresponding to hydroperoxide, sampling day 4” value in data set [1] (day 4, Control 1.5) amounted to 1.1. In data set [1] (day 7, Control 5.3), the “Relative intensity determined with the peak area corresponding to hydroperoxide, sampling day 7” value amounted to 4.5. Besides, the “Relative intensity determined with the peak area corresponding to hydroperoxide, sampling day 8” value in data set [1] (day 8, Control 7.1) is 6.0.
For the molecule `O=c1c(O)c(-c2ccc(O)c(O)c2)oc2cc(O)cc(O)c12` [quercetin], the solubility in the data set “Solubility in solvent” was roughly 2 µg/mL (≈ 6.62 µM).

These data come from patent publication US5565435A (Kabushiki Kaisha Hayashibara Seibutsu Kagaku Kenkyujo, priority 1991, dated 1996).
